# Literature values as cited in patent US20050228336A1, “Electrically assisted lidocaine and epinephrine delivery device having extended shelf-stability” (priority 2004, published 2005).
# Conditions: iontophoresis in vitro across human skin
row,Cumulative delivery compared with lidocaine,Compound
1,slightly greater delivery,CCCN(CC)C(CC)C(=O)Nc1c(C)cccc1C (stereo not drawn) [etidocaine]
2,slightly greater delivery,CCCNC(C)C(=O)Nc1ccccc1C (stereo not drawn) [prilocalne]
3,slightly greater delivery,CCN(CC)CCOC(=O)c1ccc(N)cc1 [procaine]
